In patent publication US9522124B2, “Methods for treating Alzheimer's disease” (Wisconsin Alumni Research Foundation, priority 2011, dated 2016):

What was measured:
BACE1 = experiment: Western blot assessment of BACE1 levels in H4 cell lysates; type: cell-based, human; details: H4 cells, 10 μM, 48 hours
Method: (§1) Western blotting was performed on a 4-12% Bis-Tris SDS-PAGE system (NuPAGE; Invitrogen, Carlsbad, Calif., USA) as described previously (Costantini et al., 2006; Jonas et al., 2008; Jonas et al., 2010; Ko and Puglielli, 2007; Ko and Puglielli, 2009; Pehar et al., 2010). The following antibodies were used in this study: anti-acetylated lysine (monoclonal; cat. no. ab409; Abcam, Cambridge, Mass., USA); anti-BACE1 (polyclonal; cat. no. ab2077; Abcam); anti-Myc (monoclonal; cat. no. sc-40; santa cruz, Santa Cruz, Calif., USA); anti-ATases/NAT8 (polyclonal; cat. no. AP4957c; Abgent, San Diego, Calif., USA); anti-actin (monoclonal; cat. no. A1978; Sigma, St Louis, Mo., USA); anti-C99 (monoclonal; cat. no. M066-3; MBL, Woburn, Mass., USA); anti-acetylated H3 (polyclonal; cat. no. 06-599, Millipore, Billerica, Mass.); anti-acetylated H4 (polyclonal; cat. no. 06-866, Millipore, Billerica, Mass.); anti-αPCNA (polyclonal; cat. no. AP2835b, Abgent, San Diego, Calif., USA).
Samples were imaged with classical chemiluminescence and with the LiCor Odyssey Infrared Imaging System (LI-COR Biosciences, Lincoln, Nebr., USA). For chemiluminescent detection, HRP-conjugated anti-mouse or anti-rabbit secondary antibodies were used at 1:6000 dilution in 3% BSA/TBST (GE Healthcare). Detection was performed with either Lumiglo (KPL) or ECL Plus (GE Healthcare). For infrared imaging, goat anti-rabbit Alexa Fluor 680-conjugated secondary antibodies were used.
To assess their biological effects, we treated human neuroglioma (H4) cells with 10 μM of both compounds. […] This might reflect different kinetics of inhibition as well as different IC50s (see FIG. 2). Alternatively, it might also be explained by different cell-permeability properties. In fact, the cLog P for compound 9 and 19 is 5.03 and 3.19, respectively. The cLog P (or partition coefficient) is an indication of partition properties of a compound between hydrophobic and hydrophilic compartments. Higher values indicate preferential distribution in hydrophobic environments and, as such, increased permeability across biological membranes.

Aβ = experiment: ELISA determination of secreted Aβ in conditioned media of H4 cells; type: cell-based, human; details: 10 μM, 48 hours
Method: For Aβ determinations in the conditioned media, H4 cells were plated in 6-well Petri dishes. When 80-90% confluent, cells were washed in PBS and incubated in 1 ml of fresh medium for 48 hr. Secreted Aβ was determined by standard sandwich ELISA as described before (Costantini et al., 2007; Costantini et al., 2006; Jonas et al., 2008; Jonas et al., 2010; Ko and Puglielli, 2009; Pehar et al., 2010). For each sample, the levels of Aβ40, Aβ42, and Aβtotal were quantified as triplicate based upon standard curves run (on every ELISA plate) and then expressed as pmol Aβ/mg of protein. Aβ42 was constantly found to be ˜25% of total Aβ values.

ATase1 and ATase2 [1] = experiment: In vitro acetyltransferase assay, structure-activity of derivatives of compound 9 and 19 (Tables 3, 4); type: biochemical, human; details: refers to Table 3 / Table 4
Method: (§2) The acetyl:CoA lysine acetyltransferase activity of ATase1 and ATase2 was assayed as described before (Ko and Puglielli, 2009). Briefly, we adapted a commercially available fluorescent kit (cat. no. 10006515, Cayman Chemicals) as follows: as source of the enzymatic activity, we used affinity purified ATase1-myc and ATase2-myc at the final concentration of 300 ng/μl; as donor of the acetyl group, we used acetyl-CoA at the final concentration of 12.5 μM. […] The acetyltransferase assay was performed as recommended by the manufacturer.
(§3) We previously described a fluorescent assay that is able to assess the acetylCoA:lysine acetyltransferase activity of ATase1 and ATase2 in vitro (Ko and Puglielli, 2009). The assay employs affinity purified ATase1 or ATase2 (as enzymes), acetyl-CoA (as donor of the acetyl group) and a recombinant peptide corresponding to the N-terminal tail of the histone protein H3 (as acceptor of the acetyl group). The H3 peptide was preferred to affinity purified BACE1 because it is acetylated in a conformation independent manner ((Ko and Puglielli, 2009) and data not shown) and, therefore, more suitable for large screening approaches. To identify possible ATase1 and ATase2 inhibitors we used the assay to screen a single library of 14,400 small molecules/compounds. The screen identified 186 small molecules/compounds able to inhibit ATase1, ATase2 or both in vitro. […] Each compound was then screened for cytotoxic properties by using multi-plex cytotoxicity assays on a variety of cell lines, including human neuroblastoma and human neuroglioma. […] The above 30 compounds were individually screened on human neuroglioma (H4) cells for their ability to reduce the levels of BACE1 and the generation of Aβ. Two compounds, 9 and 19, produced significant changes and were object of further study.
Next we decided to analyze structure-activity properties of both compounds. In the case of compound 9, we designed 13 different chemical derivatives and assessed IC50s in vitro.

ATase1 and ATase2 [2] = experiment: Western blot assessment of endogenous ATase1/ATase2 levels in H4 cells; type: cell-based, human; details: 10 μM, 48 hours
Method: FIG. 4. Compound 9 causes degradation of the ATases. (A) H4 cells were treated with the indicated compounds (10 μM) for 48 hours prior to Western blot assessment of BACE1 and ATase1/ATase2 levels in total cell lysates. (B, D and E) Quantification of changes are expressed as percent of control (no treatment) and are the average (n=3)±S.D.*, P<0.05; **, P<0.005; ^#, P<0.0005. (C) ELISA determination of secreted Aβ in the conditioned media of the experiment described in (A). Results are expressed as percent of control (no treatment) and are the average (n=3)±S.D.*, P<0.05; **, P<0.005. (F) CHO cells over-expressing either ATase1 or ATase2 were treated with compound 9 (10 μM) for 48 hours prior to Western blot assessment of ATase1 and ATase2 levels in total cell lysates.
FIG. 13. Compound 9 decreases the levels of both ATase1 and ATase2. (A) H4 cells were treated with the increasing concentrations of compound 9 for 48 hours prior to Western blot assessment of BACE1 and ATase1/ATase2 levels in total cell lysates. (B-D) Quantification of changes are expressed as percent of control (no treatment) and are the average (n=3)±S.D.*, P<0.05; **, P<0.005; ^#, P<0.0005.
as §1, with “AP2835b, Abgent, San Diego, Calif., USA).” left out

ATase1 = target: T1, ATase1 (Homo sapiens, UniProt Q9UHF3); experiment: AcetylCoA:lysine acetyltransferase assay (fluorescent, affinity purified ATase1-myc); type: biochemical
T1 construct: myc (C); made in house
T1 sequence (Q9UHF3 1-227): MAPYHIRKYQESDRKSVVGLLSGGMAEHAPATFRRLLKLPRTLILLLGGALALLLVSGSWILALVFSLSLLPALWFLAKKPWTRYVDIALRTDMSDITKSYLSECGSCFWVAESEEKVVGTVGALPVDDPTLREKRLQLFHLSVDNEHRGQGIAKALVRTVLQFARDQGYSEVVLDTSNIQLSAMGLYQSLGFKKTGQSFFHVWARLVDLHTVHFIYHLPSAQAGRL
Method: as §2
(§4) For kinetic analysis of ATase1 and ATase2 inhibition, the assays were performed in the presence of the indicated concentrations of compound 9, 19 and 9.I. The concentration of acetyl-CoA was varied from […]. Values were plotted as a Lineweaver-Burk plot using Graphpad Prism software.
as §3

C99 = experiment: Western blot assessment of C99 levels in H4 cell lysates; type: cell-based, human; details: H4 cells, 48 hours
Method: FIG. 7. Compound 9 and 19 decrease levels and activity of BACE1. H4 cells were treated with either compound 9 or 19 for 48 hours prior to Western blot assessment of BACE1 and C99 levels in cell lysates. C99 is the immediate product of BACE1-mediated cleavage of APP.
as §1

ATase2 = target: T2, ATase2 (Homo sapiens, UniProt Q9UHE5); experiment: AcetylCoA:lysine acetyltransferase assay (fluorescent, affinity purified ATase2-myc); type: biochemical
T2 construct: myc (C); made in house
T2 sequence (Q9UHE5 1-227): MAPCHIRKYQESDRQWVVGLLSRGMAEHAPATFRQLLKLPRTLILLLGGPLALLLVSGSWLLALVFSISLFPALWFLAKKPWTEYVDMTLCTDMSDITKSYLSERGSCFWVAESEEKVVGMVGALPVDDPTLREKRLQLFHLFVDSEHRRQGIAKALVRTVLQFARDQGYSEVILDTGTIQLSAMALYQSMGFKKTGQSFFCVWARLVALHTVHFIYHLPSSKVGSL
Method: as §2, §4, §3

[3] = test system: cytosolic and nuclear proteins, histone proteins H3 and H4; experiment: Lysine acetylation profile of cytosolic and nuclear proteins in H4 cells; type: cell-based, human; details: 48 hours
Method: FIG. 8. […] (A and B) H4 cells were treated with either compound 9 or 19 for 48 hours prior to Western blot assessment of the acetylation profile of cytosolic (A) and nuclear (B) proteins. (C) The nuclear fraction used in (B) was also used to assess the lysine acetylation profile of the histone proteins H3 and H4.
as §1
Cytosolic and nuclear extracts were prepared as described before (Ko and Puglielli, 2007). For cytosolic extracts, cells were homogenized in homogenization buffer containing 25 mM Tris-HCl, pH 7.4, 0.5 mM EDTA, 0.5 mM EGTA, and a protease inhibitor mixture. The homogenates were centrifuged at 14,000×g for 15 min, and supernatants were collected as cytosolic proteins.
For nuclear extracts cells were scraped into ice-cold phosphate-buffered saline and collected by centrifugation. The cell pellets were suspended in 3 volumes of lysis buffer (20 mM Hepes, pH 7.9, 10 mM KCl, 1 mM EDTA, pH 8.0, 0.2% Nonidet P-40, 10% glycerol, and a protease inhibitor mixture) followed by incubation on ice for 10 min. Cell suspensions were gently pipetted up and down; the lysates were then centrifuged at 14,000×g for 5 min at 4° C. to obtain nuclear pellets. Nuclear pellets were washed twice with cell lysis buffer (lacking Nonidet P-40 and protease inhibitor mixture) and then resuspended in 2 volumes of nuclear extract buffer (20 mM Hepes, pH 7.9, 10 mM KCl, 1 mM EDTA, pH 8.0, 420 mM NaCl, 20% glycerol, and a protease inhibitor mixture). The nuclei were extracted by incubation at 4° C. for 30 min with gentle agitation followed by centrifugation at 14,000×g at 4° C. for 5 min; the resultant supernatant fraction was used as a nuclear extract.

[4] = test system: histone acetyltransferase p300/CBP; experiment: In vitro activity of histone acetyltransferase p300/CBP; type: biochemical; details: data not shown
[5] = Lineweaver-Burk plot, acetyl-CoA varied

SMILES	levels of BACE1 (BACE1)	levels of Aβ in the conditioned media / generation of Aβ (Aβ)	inhibitory activity of derivative relative to parent compound (in words) (ATase1 and ATase2 [1])	further results
N=c1c(Cl)c2oc3cc(N)ccc3nc-2c2ccccc12 [Compound 9.A]	only 9.I retained significant ability	only 9.I retained significant ability	–	–
CCN(CC)c1ccc2nc3c4ccccc4c(=O)cc-3oc2c1 [Compound 9.B]	only 9.I retained significant ability	only 9.I retained significant ability	–	–
Oc1c(Cl)c2nc3ccccc3nc2c2ccccc12 [Compound 9.C]	only 9.I retained significant ability	only 9.I retained significant ability	highest activity	–
O=C1C(Cl)=C2Nc3ccccc3OC2(O)c2ccccc21 (stereo not drawn) [Compound 9.E]	only 9.I retained significant ability	only 9.I retained significant ability	decreased activity	–
O=c1ccc2nc3ccc(O)cc3oc-2c1 [Compound 9.I]	retained significant ability	retained significant ability	retained inhibitory properties	endogenous levels of ATase1 and ATase2 (ATase1 and ATase2 [2]): significantly down-regulate
CCOc1ccccc1NC1=C(Cl)C(=O)c2ccccc2C1=O [Compound 19]	significant reduction	decreased levels of Aβ	–	IC50 (ATase1): ~13.3 µM; kinetics of inhibition for acetyl-CoA, ATase1 (ATase1; [5]): non-competitive inhibition; cellular levels of C99 (C99): decreased cellular levels of C99; IC50 (ATase2): 18.2 µM; kinetics of inhibition for acetyl-CoA, ATase2 (ATase2; [5]): non-competitive inhibition; acetylation profile of cytosolic and nuclear proteins [3]: Neither compound 9 nor compound 19 produced significant changes; acetylation profile of the histone protein H3 and H4 ([3]; nuclear fraction): slight reduction; inhibition of in vitro activity of p300/CBP [4]: neither compound inhibited
